# Results: patent US20100234395A1, “UREIDE DERIVATIVE AND PHARMACEUTICAL APPLICATION THEREOF” (TORAY INDUSTRIES, INC., priority 2006, published 2010)
# Read-outs that look alike come from different tables or passages of the source.
# Columns and labels:
# [1] = target: T1, COX-1 (Homo sapiens, UniProt P23219); assay: Activity of inhibiting COX-1 in human blood (thromboxane B2 after ionomycin); format: cell-based; settings: thromboxane B2 production
# T1 construct: Human blood that had been sampled with the use of heparin (19 units/ml) was used; from tissue; host or cells: human whole blood (heparinised)
# T1 sequence (P23219 24-599): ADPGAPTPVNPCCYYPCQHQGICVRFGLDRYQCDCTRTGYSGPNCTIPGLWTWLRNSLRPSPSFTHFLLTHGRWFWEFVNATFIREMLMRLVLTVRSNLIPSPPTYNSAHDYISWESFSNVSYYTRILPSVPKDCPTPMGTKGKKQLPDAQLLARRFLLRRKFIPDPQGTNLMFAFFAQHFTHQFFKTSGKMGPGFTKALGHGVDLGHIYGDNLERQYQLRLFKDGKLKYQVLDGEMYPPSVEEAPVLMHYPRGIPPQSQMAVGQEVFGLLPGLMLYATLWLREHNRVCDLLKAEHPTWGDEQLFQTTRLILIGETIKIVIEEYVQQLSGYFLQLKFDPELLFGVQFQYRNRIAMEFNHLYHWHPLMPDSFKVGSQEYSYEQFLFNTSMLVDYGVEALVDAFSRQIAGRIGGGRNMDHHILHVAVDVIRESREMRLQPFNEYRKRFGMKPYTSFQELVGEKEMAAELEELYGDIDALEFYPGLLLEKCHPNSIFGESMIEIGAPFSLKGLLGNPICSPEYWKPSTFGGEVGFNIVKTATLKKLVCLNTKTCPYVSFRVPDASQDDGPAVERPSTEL
# Experimental: Human blood that had been sampled with the use of heparin (19 units/ml) was used. Blood was fractionated to reaction tubes in amounts of 500 μl, the test compound or solvent was added thereto, and the resultants were incubated at 37° C. for 60 minutes. Dimethyl sulfoxide (DMSO) was used as a solvent for the test compound. Thereafter, ionomycin (30 nM) was added, and the reaction was allowed to proceed for 30 minutes. After the completion of the reaction, the supernatant (blood plasma) was recovered via centrifugation at 4° C., and the amount of thromboxane B2 in the plasma was quantified using a kit (519031, Cayman Chemical). The amount of thromboxane B2 produced via the addition of ionomycin was designated as 100%, and the concentration of the test compound that inhibits 50% of such reaction was represented by the IC50 value.
# [2] = target: T2, COX-2 (Homo sapiens, UniProt P35354); assay: Activity of inhibiting COX-2 in human blood (prostaglandin E2 after lipopolysaccharide); format: cell-based; settings: prostaglandin E2 production
# T2 construct: Human blood that had been sampled with the use of heparin (19 units/ml) was used; from tissue; host or cells: human whole blood (heparinised), aspirin-pretreated, stimulated with lipopolysaccharide
# T2 sequence (P35354 18-604): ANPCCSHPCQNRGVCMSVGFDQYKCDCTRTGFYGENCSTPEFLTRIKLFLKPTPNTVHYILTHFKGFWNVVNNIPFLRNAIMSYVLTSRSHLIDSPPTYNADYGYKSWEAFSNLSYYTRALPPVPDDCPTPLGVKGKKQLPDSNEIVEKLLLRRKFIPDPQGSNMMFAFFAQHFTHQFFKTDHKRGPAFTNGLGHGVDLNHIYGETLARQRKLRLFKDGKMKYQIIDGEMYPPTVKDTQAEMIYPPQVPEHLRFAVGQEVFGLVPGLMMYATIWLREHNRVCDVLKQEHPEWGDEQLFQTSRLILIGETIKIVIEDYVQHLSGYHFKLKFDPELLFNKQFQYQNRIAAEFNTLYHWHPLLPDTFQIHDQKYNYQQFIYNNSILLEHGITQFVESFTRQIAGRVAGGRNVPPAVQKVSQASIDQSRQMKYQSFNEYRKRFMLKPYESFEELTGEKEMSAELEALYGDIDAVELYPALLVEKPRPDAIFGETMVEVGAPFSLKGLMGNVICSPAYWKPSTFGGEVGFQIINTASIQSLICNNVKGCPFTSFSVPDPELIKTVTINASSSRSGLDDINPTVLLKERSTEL
# Experimental: Human blood that had been sampled with the use of heparin (19 units/ml) was used. Blood was fractionated to reaction tubes in amounts of 500 μl, aspirin (12 μg/ml) was added thereto, and the resultants were incubated at 37° C. for 6 hours. Thereafter, the test compound or solvent, and lipopolysaccharide (10 μg/ml) were added, and the reaction was allowed to proceed for 18 hours. After the completion of the reaction, the supernatant (blood plasma) was recovered via centrifugation at 4° C., and the amount of prostaglandin E2 in the plasma was quantified using a kit (514010, Cayman Chemical). Dimethyl sulfoxide (DMSO) was used as a solvent for the test compound. The amount of prostaglandin E2 produced via the addition of lipopolysaccharide was designated as 100%, and the concentration of the test compound that inhibits 50% of such reaction was represented by the IC50 value.
# [3] = tested on: ddY mice; assay: Acetic acid writhing test in mice (analgesic effects); format: in vivo; settings: for ED50: Mus musculus
# Experimental: ddY mice were grown for at least 16 hours under fasting conditions while free water intake was allowed, and a solution of the test compound or a solvent was orally administered thereto (0.1 ml/10 g). As a solvent for a solution of the test compound, dimethyl sulfoxide (DMSO):Tween 80:27% hydroxypropyl-P-cyclodextrin (hereafter abbreviated to “HP-β-CD”) (1:1:8) or 27% HP-β-CD was used. A solution of 0.6% acetic acid (0.1 ml/10 g) was administered intraperitoneally 45 minutes after administration to induce a writhing reaction (i.e., a movement of stretching or arching the body). The number of the writhing reactions that had occurred for the period from 10 minutes after administration of the acetic acid solution to 10 minutes thereafter was counted, and the number of times was designated as an indicator of pain. The number of times of reactions in the group to which a solvent had been administered was designated as 100%, and the concentration of the test compound that had inhibited 50% of such reaction was designated as the ED50 value.
# The compound of Reference Example 78 is disclosed in the claims of JP Patent Publication (kohyo) No. 2006-517535 A, the compounds of Reference Examples 93 and 199 are disclosed in the claims of JP Patent No. 3003148, and the compound of Reference Example 103 is disclosed in the claims of JP Patent Publication (kohyo) No. 2006-514095 A. Thus, these compounds were compared with the compounds of the present invention having similar structures in terms of analgesic effects with oral administration (Table 4) or subcutaneous administration (Table 5). Dimethyl sulfoxide (DMSO):Tween 80:27% HP-β-CD (1:1:8) or 27% HP-β-CD was used as a solvent for the test compound.
# [4] = tested on: ICR mice; assay: Partial sciatic nerve ligation model in mice (Seltzer model), von Frey test; format: in vivo; settings: 7 days after ligation, FIG. 1
# Experimental: Analgesic effects of the compound of the present invention were evaluated using the partial sciatic nerve ligation model (Seltzer models) in mice, with which neuropathic pain can be evaluated.
# Models of neuropathic pain were prepared in accordance with the method of Seltzer et al. ICR mice (5-week-old, male) were put under anesthesia with sodium pentobarbital (70 mg/kg, i.p.) to expose the sciatic nerve of the femoral region of the right posterior limb, and half of the sciatic nerve was strongly and triply ligated using 8-0 silk yarn (Natsume Seisakusho, Co., Ltd.) under a microscope (this group is designated as the “ligation group”). The group that had been subjected to exposure of the sciatic nerve without ligation was designated as a sciatic nerve control group (i.e., the “sham group”). […] The von Frey tests were performed 1 hour, 2 hours, and 3 hours after the oral administration for determining the pre-values prior to the administration of the test substances, which took place 7 days after the ligation surgery of sciatic nerve, and such values were designated as the indicators of analgesic effects. Gabapentin (30 mg/kg, po) was used as a positive control. As a solvent for the test compound, 27% HP—P—CD was used.
# The obtained data were processed by performing a paired t-test amongst several groups and correcting the data via Dunnett's method.
# The compound of Reference Example 78 is disclosed in the claims of JP Patent Publication (kohyo) No. 2006-517535 A, the compounds of Reference Example 93 and Reference Example 199 are disclosed in the claims of JP Patent No. 3003148, and the compound of Reference Example 103 is disclosed in the claims of JP Patent Publication (kohyo) No. 2006-514095 A. Accordingly, sulfate of Reference Example 78, toluenesulfonate of Reference Example 93, the free compound of Reference Example 199, and sulfate of Reference Example 103 were used as test compounds and evaluated using mouse models of partial sciatic nerve ligation, which were similar to those used in Example 79. 27% HP-β-CD was used as a solvent for the test compounds.
# [5] = tested on: ddY mice; assay: Formalin test in mice; format: in vivo; settings: oral 10 mg/kg, FIG. 2; for indicator of pain (licking time), phase II: 10 to 30 minutes after formalin; for indicator of pain (licking time), phase I: within 10 minutes after formalin
# Experimental: ddY mice were grown for at least 16 hours under fasting conditions while free water intake was allowed, and a solution of the test compound or a solvent was orally administered thereto (0.1 ml/10 g). As a solvent for a solution of the test compound, 27% HP-β-CD was used. Thirty minutes after administration, 20 μl of a 2.5% formalin solution was subcutaneously administered to the ichnograms of right posterior legs of mice to induce a movement of licking. A movement of mice to lick the treated legs was designated as an indicator of pain, and the licking time was measured at 5-minute intervals for 30 minutes. The reaction that had occurred within 10 minutes immediately after administration of the formalin solution was designated as the phase I reaction, and the reaction that had occurred 10 to 30 minutes after administration was designated as the phase II reaction.
# [6] = oral administration 45 minutes before 0.6% acetic acid i.p., 50% inhibition of writhing reactions, read-out: ED50 (mg/kg)[90% confidence limit]
# [7] = oral administration of 3 and 10 mg/kg of Example 27 and Example 40, respectively
# [8] = sc, Table 5, subcutaneous administration, read-out: ED50 (mg/kg) [90% confidence limit]
Compound,IC50 [1],IC50 [2],"ED50 [3, 6]",further results
"COC(=O)C1(c2nc(-c3ccc(OC)cc3)c(-c3ccc(OC)cc3)o2)CCN(C(=O)N(C)O)CC1 [Example 14, Methyl 4-(4,5-bis(4-methoxyphenyl)oxazol-2-yl)-1-(N-hydroxy-N-methylcarbamoyl)-4-piperidinecarboxylate]",< 0.1 µM,> 10 µM,4.17 mg/kg,results of the von Frey test ([4]; oral administration of 10 mg/kg): significantly improved
"COc1ccc(-c2nc(C3CCN(C(=O)N(C)O)CC3)oc2-c2ccc(OC)cc2)cc1 [Example 1, 4-(4,5-Bis(4-methoxyphenyl)oxazol-2-yl)-1-(N-hydroxy-N-methylcarbamoyl)piperidine]",< 0.1 µM,> 10 µM,2.02 mg/kg,"ED50 ([3]; Table 4, oral administration, comparison with similar known compound, read-out: ED50 (mg/kg) [90% confidence limit]): 2.02 mg/kg; activity ratio (analgesic effects) ([3]; oral administration, compared with Reference Example 78 (sulfate)): at least 49 times"
"COc1ccc(-c2nc(C3CCN(C(=O)N(C)O)CC3)oc2-c2ccc(C)cc2)cc1 [Example 7, 4-(4-(4-Methoxyphenyl)-5-(4-tolyl)oxazol-2-yl)-1-(N-hydroxy-N-methylcarbamoyl)piperidine]",< 0.1 µM,> 10 µM,3.27 mg/kg,–
"COc1ccc(-c2nc(C3CCN(C(=O)N(C)O)CC3)oc2-c2ccc(F)cc2)cc1 [Example 9, 4-(5-(4-Fluorophenyl)-4-(4-methoxyphenyl)oxazol-2-yl)-1-(N-hydroxy-N-methylcarbamoyl)-piperidine]",< 0.1 µM,> 10 µM,2.63 mg/kg,–
"COc1ccc(-c2nc(C3CCN(C(=O)N(C)O)CC3)sc2-c2ccc(OC)cc2)cc1 [Example 27, 4-(4,5-Bis(4-methoxyphenyl)thiazol-2-yl)-1-(N-hydroxy-N-methylcarbamoyl)piperidine]",< 0.1 µM,> 10 µM,2.46 mg/kg,"results of the von Frey test [4, 7]: significantly improved; indicator of pain (licking time), phase II [5]: significantly improved; indicator of pain (licking time), phase I [5]: significantly improved; ED50 [3, 8]: 1.82 mg/kg; activity ratio (analgesic effects) ([3]; subcutaneous administration, compared with Reference Example 93 (toluenesulfonate)): at least 54 times; activity ratio (analgesic effects) ([3]; subcutaneous administration, compared with Reference Example 199): about 19 times"
"COc1ccc(-c2oc(C3CCN(C(=O)N(C)O)CC3)nc2-c2ccc(C)cc2)cc1 [Example 4, 4-(5-(4-Methoxyphenyl)-4-(4-tolyl)oxazol-2-yl)-1-(N-hydroxy-N-methylcarbamoyl)piperidine]",< 0.1 µM,> 10 µM,4.02 mg/kg,–
"COc1ccc(-c2oc(C3CCN(C(=O)N(C)O)CC3)nc2-c2ccc(Cl)cc2)cc1 [Example 12, 4-(4-(4-Chlorophenyl)-5-(4-methoxyphenyl)oxazol-2-yl)-1-(N-hydroxy-N-methylcarbamoyl)-piperidine]",< 0.1 µM,> 10 µM,2.29 mg/kg,–

# Second part, led by results:
IC50 [1],IC50 [2],Compound,"ED50 [3, 6]",further results
< 0.1 µM,> 10 µM,"COc1ccc(-c2nc(C3CCN(C(=O)N(C)O)CC3)oc2-c2ccc(Cl)cc2)cc1 [Example 20, 4-(5-(4-Chlorophenyl)-4-(4-methoxyphenyl)oxazol-2-yl)-1-(N-hydroxy-N-methylcarbamoyl)-piperidine]",6.45 mg/kg,–
< 0.1 µM,> 10 µM,"COc1ccc(-n2nc(C3CCN(C(=O)N(C)O)CC3)cc2-c2ccc(C)cc2)cc1 [Example 69, 4-(1-(4-Methoxyphenyl)-5-(4-tolyl)-1H-pyrazol-3-yl)-1-(N-hydroxy-N-methylcarbamoyl)piperidine]",3.19 mg/kg,–
< 0.1 µM,> 10 µM,"COc1ccc(-c2cc(C3CCN(C(=O)N(C)O)CC3)nn2-c2ccc(OC)cc2)cc1 [Example 40, 4-(1,5-Bis(4-methoxyphenyl)-1H-pyrazol-3-yl)-1-(N-hydroxy-N-methylcarbamoyl)piperidine]",1.64 mg/kg,"results of the von Frey test [4, 7]: significantly improved; indicator of pain (licking time), phase II [5]: significantly improved; indicator of pain (licking time), phase I [5]: significantly improved; ED50 [3, 8]: 2.47 mg/kg; activity ratio (analgesic effects) ([3]; subcutaneous administration, compared with Reference Example 103 (sulfate)): at least 40 times"
